Data: PubChem BioAssay AID2060610 (Molecular Pharmacology Branch, DTP, NCI, 2025)
Values joined by “and” are separate entries in the source; they are usually repeats but may differ in a detail not shown here. Equal entries are not always repeated.

Test system: 616215-338-R-J1-PDC complex spheroids, viability % test/control
Test: Anticancer human tumor 616215-338-R-J1-PDC patient-derived colon adenocarcinoma cell line growth inhibition [CLK]
Conditions: for viability, T/C: stronger effect = lower value
How it was run: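 Multi-cell-type spheroids combined patient-derived tumor cells with HUVEC endothelial cells and human mesenchymal stem cells. Paired agents were dosed in half-log steps down from about clinical Cmax, or from 10 microM where Cmax was unknown.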

[1] = curve of first compound, second compound 0.0316 µM
[2] = curve of first compound, second compound 0.1 µM
[3] = curve of first compound, second compound 0.316 µM
[4] = curve of first compound, second compound 1 µM
[5] = curve of first compound, second compound 3.16 µM
[6] = curve of first compound, second compound 10 µM
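Also: spheroids exposed to agents for 7 days.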
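For viability, T/C in this document: 100% = DMSO vehicle wells.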

**Q.** Which results are given for `CC(Nc1ccc2c(c1)OCCn1cc(N3C(=O)OCC3C(F)F)nc1-2)C(N)=O` (stereo unspecified) + CNC(=O)c1ccc(Nc2nc(OC3CCCC3)c3c(-c4ccc5nc(C)oc5c4)c[nH]c3n2)c(OC)c1?
**A.** IC50 [1]: > 10000 nM; IC50 [2]: 3810 nM; IC50 [3]: < 31.6 nM; IC50 [4]: < 31.6 nM; IC50 [5]: < 31.6 nM; IC50 [6]: < 31.6 nM; viability, T/C (second compound 0.0316 µM, first compound 0.0316 µM): 95.8%; viability, T/C (second compound 0.0316 µM, first compound 0.1 µM): 106%; viability, T/C (second compound 0.0316 µM, first compound 0.316 µM): 100%; viability, T/C (second compound 0.0316 µM, first compound 1 µM): 104%; viability, T/C (second compound 0.0316 µM, first compound 3.16 µM): 104%; viability, T/C (second compound 0.0316 µM, first compound 10 µM): 90.3%; viability, T/C (second compound 0.1 µM, first compound 0.0316 µM): 52.5%; viability, T/C (second compound 0.1 µM, first compound 0.1 µM): 65.9%; viability, T/C (second compound 0.1 µM, first compound 0.316 µM): 51.7%; viability, T/C (second compound 0.1 µM, first compound 1 µM): 56.2%; viability, T/C (second compound 0.1 µM, first compound 3.16 µM): 51.5%; viability, T/C (second compound 0.1 µM, first compound 10 µM): 42.1%; viability, T/C (second compound 0.316 µM, first compound 0.0316 µM): 38.8%; viability, T/C (second compound 0.316 µM, first compound 0.1 µM): 34.2%; viability, T/C (second compound 0.316 µM, first compound 0.316 µM): 37.6%; viability, T/C (second compound 0.316 µM, first compound 1 µM): 25.4%; viability, T/C (second compound 0.316 µM, first compound 3.16 µM): 26.1%; viability, T/C (second compound 0.316 µM, first compound 10 µM): 21.9%; viability, T/C (second compound 1 µM, first compound 0.0316 µM): 33%; viability, T/C (second compound 1 µM, first compound 0.1 µM): 32.5%; viability, T/C (second compound 1 µM, first compound 0.316 µM): 26.4%; viability, T/C (second compound 1 µM, first compound 1 µM): 23.3%; viability, T/C (second compound 1 µM, first compound 3.16 µM): 16.4%; viability, T/C (second compound 1 µM, first compound 10 µM): 14.8%; viability, T/C (second compound 3.16 µM, first compound 0.0316 µM): 35.2%; viability, T/C (second compound 3.16 µM, first compound 0.1 µM): 25.9%; viability, T/C (second compound 3.16 µM, first compound 0.316 µM): 21.7%; viability, T/C (second compound 3.16 µM, first compound 1 µM): 17.4%; viability, T/C (second compound 3.16 µM, first compound 3.16 µM): 17%; viability, T/C (second compound 3.16 µM, first compound 10 µM): 12.4%; viability, T/C (second compound 10 µM, first compound 0.0316 µM): 28%; viability, T/C (second compound 10 µM, first compound 0.1 µM): 28.8%; viability, T/C (second compound 10 µM, first compound 0.316 µM): 21.9%; viability, T/C (second compound 10 µM, first compound 1 µM): 17.7%; viability, T/C (second compound 10 µM, first compound 3.16 µM): 17%; viability, T/C (second compound 10 µM, first compound 10 µM): 12.8%

**Q.** What does the source list for `O=C(c1cc(Cc2n[nH]c(=O)c3ccccc23)ccc1F)N1CCN(C(=O)C2CC2)CC1`?
**A.** viability, T/C (compound 0.0316 µM): 96.4% and 102%; viability, T/C (compound 0.1 µM): 96.1% and 94.5%; viability, T/C (compound 0.316 µM): 87.9% and 96.6%; viability, T/C (compound 1 µM): 88.2% and 93.6%; viability, T/C (compound 3.16 µM): 106% and 99.5%; viability, T/C (compound 10 µM): 97.4% and 99.5%; IC50 (curve of compound): > 10000 nM

**Q.** For `C=CC(=O)Nc1cc(Nc2nccc(-c3cn(C)c4ccccc34)n2)c(OC)cc1N(C)CCN(C)C` + CN1CCN(c2cc(C(=O)Nc3cc4cc(-c5cnn(C)c5)ccc4cn3)ccn2)CC1, which IC50 [1] is on record?
**A.** The IC50 was > 300 nM.

**Q.** And the IC50 [2]?
**A.** The IC50 was > 300 nM.

**Q.** And the IC50 [3]?
**A.** Its IC50 is < 0.949 nM.

**Q.** What about the IC50 [4] of the same compound?
**A.** Its IC50 is < 0.949 nM.

**Q.** What about the IC50 [5] of the same compound?
**A.** Its IC50 is < 0.949 nM.

**Q.** And the IC50 [6]?
**A.** Its IC50 is < 0.949 nM.

**Q.** What about the viability, T/C (second compound 0.0316 µM, first compound 0.000949 µM) of the same compound?
**A.** Its viability, T/C is 104%.

**Q.** And the viability, T/C (second compound 0.0316 µM, first compound 0.003 µM)?
**A.** The viability, T/C was 102%.

**Q.** What about the viability, T/C (second compound 0.0316 µM, first compound 0.00949 µM) of the same compound?
**A.** Its viability, T/C is 93.5%.

**Q.** And the viability, T/C (second compound 0.0316 µM, first compound 0.03 µM)?
**A.** Its viability, T/C is 103%.

**Q.** What about the viability, T/C (second compound 0.0316 µM, first compound 0.0949 µM) of the same compound?
**A.** The viability, T/C was 107%.

**Q.** And the viability, T/C (second compound 0.0316 µM, first compound 0.3 µM)?
**A.** Its viability, T/C is 107%.

**Q.** And the viability, T/C (second compound 0.1 µM, first compound 0.000949 µM)?
**A.** Its viability, T/C is 125%.

**Q.** And the viability, T/C (second compound 0.1 µM, first compound 0.003 µM)?
**A.** Its viability, T/C is 114%.

**Q.** And the viability, T/C (second compound 0.1 µM, first compound 0.00949 µM)?
**A.** Its viability, T/C is 110%.

**Q.** And the viability, T/C (second compound 0.1 µM, first compound 0.03 µM)?
**A.** Its viability, T/C is 111%.

**Q.** What about the viability, T/C (second compound 0.1 µM, first compound 0.0949 µM) of the same compound?
**A.** The viability, T/C was 97.3%.

**Q.** And the viability, T/C (second compound 0.1 µM, first compound 0.3 µM)?
**A.** The viability, T/C was 79.2%.

**Q.** And the viability, T/C (second compound 0.316 µM, first compound 0.000949 µM)?
**A.** Its viability, T/C is 30.5%.

**Q.** And the viability, T/C (second compound 0.316 µM, first compound 0.003 µM)?
**A.** The viability, T/C was 35.5%.

**Q.** And the viability, T/C (second compound 0.316 µM, first compound 0.00949 µM)?
**A.** The viability, T/C was 37%.

**Q.** And the viability, T/C (second compound 0.316 µM, first compound 0.03 µM)?
**A.** The viability, T/C was 25.2%.

**Q.** What about the viability, T/C (second compound 0.316 µM, first compound 0.0949 µM) of the same compound?
**A.** Its viability, T/C is 24.5%.

**Q.** What about the viability, T/C (second compound 0.316 µM, first compound 0.3 µM) of the same compound?
**A.** Its viability, T/C is 20.4%.

**Q.** What about the viability, T/C (second compound 1 µM, first compound 0.000949 µM) of the same compound?
**A.** Its viability, T/C is 0.17%.

**Q.** And the viability, T/C (second compound 1 µM, first compound 0.003 µM)?
**A.** Its viability, T/C is 0.18%.

**Q.** And the viability, T/C (second compound 1 µM, first compound 0.00949 µM)?
**A.** Its viability, T/C is 1.87%.

**Q.** And the viability, T/C (second compound 1 µM, first compound 0.03 µM)?
**A.** The viability, T/C was 0.19%.

**Q.** And the viability, T/C (second compound 1 µM, first compound 0.0949 µM)?
**A.** The viability, T/C was 0.34%.

**Q.** What about the viability, T/C (second compound 1 µM, first compound 0.3 µM) of the same compound?
**A.** Its viability, T/C is 1.79%.

**Q.** And the viability, T/C (second compound 3.16 µM, first compound 0.000949 µM)?
**A.** Its viability, T/C is 0.2%.

**Q.** What about the viability, T/C (second compound 3.16 µM, first compound 0.003 µM) of the same compound?
**A.** The viability, T/C was 0.16%.

**Q.** And the viability, T/C (second compound 3.16 µM, first compound 0.00949 µM)?
**A.** The viability, T/C was 0.17%.

**Q.** What about the viability, T/C (second compound 3.16 µM, first compound 0.03 µM) of the same compound?
**A.** The viability, T/C was 0.17%.

**Q.** And the viability, T/C (second compound 3.16 µM, first compound 0.0949 µM)?
**A.** The viability, T/C was 1.76%.

**Q.** What about the viability, T/C (second compound 3.16 µM, first compound 0.3 µM) of the same compound?
**A.** Its viability, T/C is 1.73%.

**Q.** And the viability, T/C (second compound 10 µM, first compound 0.000949 µM)?
**A.** The viability, T/C was 0.28%.

**Q.** And the viability, T/C (second compound 10 µM, first compound 0.003 µM)?
**A.** Its viability, T/C is 0.23%.

**Q.** And the viability, T/C (second compound 10 µM, first compound 0.00949 µM)?
**A.** The viability, T/C was 0.25%.

**Q.** And the viability, T/C (second compound 10 µM, first compound 0.03 µM)?
**A.** Its viability, T/C is 0.24%.

**Q.** What about the viability, T/C (second compound 10 µM, first compound 0.0949 µM) of the same compound?
**A.** The viability, T/C was 0.22%.

**Q.** What about the viability, T/C (second compound 10 µM, first compound 0.3 µM) of the same compound?
**A.** Its viability, T/C is 0.24%.
